Results taken from US11161885B2, “Antimicrobial protein” (CONSUMO EM VERDE—BIOTECNOLOGIA DAS PLANTAS, S.A., priority 2010, dated 2021).

Tests used:
Type in all cases: cell-based
Pseudomonas aeruginosa = assay: Time-kill curves for BLAD and/or EDTA; conditions: EDTA at 1 mg/ml alone
Method: (§1) • MIC—Minimum Inhibitory Concentration: the lowest concentration of an antimicrobial that inhibits the visible growth of a microorganism. • MFC/MBC—Minimum Fungicidal/Bactericidal Concentration (or Minimal Lethal Concentration): the lowest concentration of an antimicrobial agent needed to kill 99.9% of the initial inoculum after 24 h under a standardized set of conditions. • Time-kill curves—Determination of the “killing” of an isolate over time by one or more antimicrobial agents under controlled conditions is known as the time-kill method. It is a broth based method where the rate of killing of a fixed inoculum is determined by sampling control (organism, no drug) and antimicrobial agent-containing tubes or flasks, at certain time intervals, and determining the survivor colony count (cfu/ml) by spreading each sample onto an agar plate.
(§2) Time-kill curves for BLAD and/or EDTA with (A) Listeria monocytogenes, (B) Pseudomonas aeruginosa and (C) Candida albicans: see FIG. 9.

Listeria monocytogenes = assay: Time-kill curves for BLAD and/or EDTA; conditions: EDTA at 0.1 mg/ml alone
Method: as §1, §2

Candida albicans [1] = assay: Time-kill curve and growth curve for BLAD and/or EDTA; conditions: EDTA at 0.1 mg/ml alone
Method: as §1, §2

Candida albicans [2] = assay: Growth curve in PDB pH 7 medium
Excerpt: Growth curve for BLAD with Candida albicans in PDB pH 7 medium: see FIG. 4.

Compound: O=C(O)CN(CCN(CC(=O)O)CC(=O)O)CC(=O)O [EDTA, ethylenediaminetetraacetic acid]
- activity in time-kill curve (Pseudomonas aeruginosa): bacteriostatic
- activity in time-kill curve (Listeria monocytogenes): neither BLAD at 10 μg/ml nor EDTA at 0.1 mg/ml inhibits growth
- activity in time-kill curve (Candida albicans [1]): fungistatic

Compound: OC(Cn1cncn1)(Cn1cncn1)c1ccc(F)cc1F [fluconazole]
- activity in growth curve (Candida albicans [2]; 100 μg/ml): merely delays growth

Compound: C[C@@H]1[C@H](O)[C@@H](C)/C=C/C=C/C=C/C=C/C=C/C=C/C=C/[C@H](O[C@@H]2O[C@H](C)[C@@H](O)[C@H](N)[C@@H]2O)C[C@@H]2O[C@](O)(C[C@@H](O)C[C@@H](O)[C@H](O)CC[C@@H](O)C[C@@H](O)CC(=O)O[C@H]1C)C[C@H](O)[C@H]2C(=O)O [amphotericin B]
- activity in growth curve (Candida albicans [2]; 10 μg/ml): fungistatic
